Source: patent publication US20060058314A1, “Oxazolidinone derivatives and their use as antibacterial agents” (AstraZeneca AB, priority 2002, published 2006)

What was measured:
Assay type in all cases: cell-based
[1] = system: Linezolid Resistant Streptococcus pneumoniae; assay: MIC, agar with 5% defibrinated horse blood, streptococci; settings: agar + 5% horse blood, 10^4 CFU/spot, 37° C., 5% CO2, 48 hours
Method: (§1) The following results were obtained on a standard in-vitro test system. The activity is described in terms of the minimum inhibitory concentration (MIC) determined by the agar-dilution technique with an inoculum size of 10^4 CFU/spot. Typically, compounds are active in the range 0.01 to 256 μg/ml.
(§2) Streptococci and enterococci were tested on agar supplemented with 5% defibrinated horse blood, an inoculum of 10^4 CFU/spot and an incubation temperature of 37° C. in an atmosphere of 5% carbon dioxide for 48 hours—blood is required for the growth of some of the test organisms. Fastidious Gram negative organisms were tested in Mueller-Hinton broth, supplemented with hemin and NAD, grown aerobically for 24 hours at 37° C., and with an innoculum of 5×10^4 CFU/well.

Streptococcus pneumoniae = assay: as above; settings: agar + 5% horse blood, 10^4 CFU/spot, 37° C., 5% CO2, 48 hours
Method: as §1, §2

[2] = system: Staphylococcus aureus MRQR (methicillin resistant and quinolone resistant); assay: MIC, agar dilution, staphylococci; settings: 10^4 CFU/spot, 37° C., 24 hours
Method: as §1
(§3) Staphylococci were tested on agar, using an inoculum of 10^4 CFU/spot and an incubation temperature of 37° C. for 24 hours—standard test conditions for the expression of methicillin resistance.

[3] = system: Staphylococcus aureus MSQS (methicillin sensitive and quinolone sensitive); assay: MIC, agar dilution, staphylococci; settings: 10^4 CFU/spot, 37° C., 24 hours
Method: as §1, §3

Enterococcus faecium = assay: MIC, agar with 5% defibrinated horse blood, enterococci; settings: agar + 5% horse blood, 10^4 CFU/spot, 37° C., 5% CO2, 48 hours
Method: as §1, §2

Moraxella catarrhalis = assay: MIC, fastidious Gram negative organisms in Mueller-Hinton broth; settings: Mueller-Hinton broth + hemin and NAD, 24 hours, 37° C., 5×10^4 CFU/well
Method: as §1, §2

Haemophilus influenzae = assay: as above; settings: Mueller-Hinton broth + hemin and NAD, 24 hours, 37° C., 5×10^4 CFU/well
Method: as §1, §2

MIC [1]: 4 µg/mL
MIC (Streptococcus pneumoniae): 0.25 µg/mL
MIC [2]: 2 µg/mL
MIC [3]: 2 µg/mL
MIC (Enterococcus faecium): 2 µg/mL
MIC (Moraxella catarrhalis): 2 µg/mL
MIC (Haemophilus influenzae): 8 µg/mL
SMILES: O=C1O[C@@H](Cn2ccnn2)CN1c1ccc(-c2cnc(C3=NOC(CO)C3)nc2)c(F)c1 (mixture of isomers) [Example 1, 3-(3-Fluoro-4-{2-(5RS)-[5-(hydroxymethyl)-4,5-dihydroisoxazol-3-yl]pyrimidin-5-yl}phenyl)-5-(5R)-(1H-1,2,3-triazol-1-ylmethyl)-1,3-oxazolidin-2-one]
